Measured values from ChEMBL document CHEMBL3885861, “Open TG-GATES”.

Species: Rattus norvegicus
Experiment: Open TG-GATES - Regimen: Single
Type: toxicity, organism-based, Sprague-Dawley
Set-up: regimen Single, gender Male, age 6 weeks
Details: in vivo, po, 300 mg/kg, route gavage, dose level Middle; for APTT / Bas / Eos / Fbg / Hb / Ht / Lym / MCH / MCHC / MCV / Mono / Neu / PT / Plat / RBC / Ret / WBC: tissue Blood; for KIDNEY_L / KIDNEY_R / KIDNEY_TOTAL: tissue Kidney; for LIVER: tissue Liver; for A/G / ALP / ALT / AST / BUN / CRE / Ca / Cl / DBIL / GLC / IP / K / LDH / Na / PL / RALB / TBIL / TC / TG / TP / gamma-GTP: tissue Plasma

Question: For CCOC(=O)CCC(=O)O[C@H]1[C@H](O[C@@H]2[C@@H](C)[C@H](O[C@H]3C[C@@](C)(OC)[C@@H](O)[C@H](C)O3)[C@@H](C)C(=O)O[C@H](CC)[C@@](C)(O)[C@H](O)[C@@H](C)C(=O)[C@H](C)C[C@@]2(C)O)O[C@H](C)C[C@@H]1N(C)C [ERYTHROMYCIN ETHYLSUCCINATE], which TERMINAL_BW (3 h) is on record?
Answer: 220.4 g

Question: What about the APTT (3 h) of the same compound?
Answer: 21.7 s

Question: And the Bas (3 h)?
Answer: 0%

Question: And the Eos (3 h)?
Answer: 1%

Question: What about the Fbg (3 h) of the same compound?
Answer: 294.4 mg/dL

Question: And the Hb (3 h)?
Answer: 12.8 g/dL

Question: What about the Ht (3 h) of the same compound?
Answer: 38.6%

Question: What about the Lym (3 h) of the same compound?
Answer: 75.4%

Question: What about the MCH (3 h) of the same compound?
Answer: 21.2 pg

Question: And the MCHC (3 h)?
Answer: 33.2%

Question: And the MCV (3 h)?
Answer: 63.8 fL

Question: What about the Mono (3 h) of the same compound?
Answer: 2.6%

Question: And the Neu (3 h)?
Answer: 19.8%

Question: What about the PT (3 h) of the same compound?
Answer: 15.7 s

Question: What about the Plat (3 h) of the same compound?
Answer: 123.6 x10_4/uL

Question: What about the RBC (3 h) of the same compound?
Answer: 606.2 x10_4/ul

Question: What about the Ret (3 h) of the same compound?
Answer: 7.9%

Question: What about the WBC (3 h) of the same compound?
Answer: 80.1 x10_2/uL

Question: What about the KIDNEY_L (3 h) of the same compound?
Answer: 1 g

Question: And the KIDNEY_R (3 h)?
Answer: 1 g

Question: What about the KIDNEY_TOTAL (3 h) of the same compound?
Answer: 2.1 g

Question: And the LIVER (3 h)?
Answer: 10 g

Question: And the A/G (3 h)?
Answer: 1.2

Question: What about the ALP (3 h) of the same compound?
Answer: 1689.6 IU/L

Question: What about the ALT (3 h) of the same compound?
Answer: 42.4 IU/L

Question: And the AST (3 h)?
Answer: 74.2 IU/L

Question: And the BUN (3 h)?
Answer: 11.6 mg/dL

Question: What about the CRE (3 h) of the same compound?
Answer: 0.2 mg/dL

Question: And the Ca (3 h)?
Answer: 10.5 mg/dL

Question: And the Cl (3 h)?
Answer: 103.8 meq/L

Question: And the DBIL (3 h)?
Answer: 0.004 mg/dL

Question: What about the GLC (3 h) of the same compound?
Answer: 179 mg/dL

Question: And the IP (3 h)?
Answer: 9.1 mg/dL

Question: What about the K (3 h) of the same compound?
Answer: 4.1 meq/L

Question: And the LDH (3 h)?
Answer: 141 IU/L

Question: What about the Na (3 h) of the same compound?
Answer: 138.6 meq/L

Question: And the PL (3 h)?
Answer: 149 mg/dL

Question: What about the RALB (3 h) of the same compound?
Answer: 2.9 g/dL

Question: What about the TBIL (3 h) of the same compound?
Answer: 0.026 mg/dL

Question: And the TC (3 h)?
Answer: 76.4 mg/dL

Question: What about the TG (3 h) of the same compound?
Answer: 66.4 mg/dL

Question: What about the TP (3 h) of the same compound?
Answer: 5.3 g/dL

Question: What about the gamma-GTP (3 h) of the same compound?
Answer: 1 IU/L

Question: What about the TERMINAL_BW (6 h) of the same compound?
Answer: 216.3 g

Question: And the APTT (6 h)?
Answer: 22.3 s

Question: And the Bas (6 h)?
Answer: 0%

Question: What about the Eos (6 h) of the same compound?
Answer: 0.8%

Question: What about the Fbg (6 h) of the same compound?
Answer: 318.4 mg/dL

Question: And the Hb (6 h)?
Answer: 13.1 g/dL

Question: What about the Ht (6 h) of the same compound?
Answer: 39.8%

Question: What about the Lym (6 h) of the same compound?
Answer: 77.8%

Question: What about the MCH (6 h) of the same compound?
Answer: 20.8 pg

Question: What about the MCHC (6 h) of the same compound?
Answer: 32.8%

Question: What about the MCV (6 h) of the same compound?
Answer: 63.5 fL

Question: What about the Mono (6 h) of the same compound?
Answer: 3.8%

Question: What about the Neu (6 h) of the same compound?
Answer: 16.4%

Question: And the PT (6 h)?
Answer: 15.7 s

Question: What about the Plat (6 h) of the same compound?
Answer: 115 x10_4/uL

Question: What about the RBC (6 h) of the same compound?
Answer: 627.8 x10_4/ul

Question: And the Ret (6 h)?
Answer: 8.7%

Question: And the WBC (6 h)?
Answer: 87.9 x10_2/uL

Question: And the KIDNEY_L (6 h)?
Answer: 1 g

Question: And the KIDNEY_R (6 h)?
Answer: 1 g

Question: What about the KIDNEY_TOTAL (6 h) of the same compound?
Answer: 2 g

Question: What about the LIVER (6 h) of the same compound?
Answer: 9.2 g

Question: What about the A/G (6 h) of the same compound?
Answer: 1.2

Question: What about the ALP (6 h) of the same compound?
Answer: 1767.2 IU/L

Question: And the ALT (6 h)?
Answer: 43.4 IU/L

Question: What about the AST (6 h) of the same compound?
Answer: 72.8 IU/L

Question: And the BUN (6 h)?
Answer: 10.8 mg/dL

Question: And the CRE (6 h)?
Answer: 0.2 mg/dL

Question: What about the Ca (6 h) of the same compound?
Answer: 10.6 mg/dL

Question: What about the Cl (6 h) of the same compound?
Answer: 104 meq/L

Question: What about the DBIL (6 h) of the same compound?
Answer: 0 mg/dL

Question: What about the GLC (6 h) of the same compound?
Answer: 180 mg/dL

Question: And the IP (6 h)?
Answer: 10.1 mg/dL

Question: And the K (6 h)?
Answer: 4.2 meq/L

Question: And the LDH (6 h)?
Answer: 160.2 IU/L

Question: And the Na (6 h)?
Answer: 138.2 meq/L

Question: And the PL (6 h)?
Answer: 140 mg/dL

Question: What about the RALB (6 h) of the same compound?
Answer: 2.9 g/dL

Question: And the TBIL (6 h)?
Answer: 0.032 mg/dL

Question: And the TC (6 h)?
Answer: 75.6 mg/dL

Question: What about the TG (6 h) of the same compound?
Answer: 50.6 mg/dL

Question: What about the TP (6 h) of the same compound?
Answer: 5.4 g/dL

Question: And the gamma-GTP (6 h)?
Answer: 1.2 IU/L

Question: And the TERMINAL_BW (9 h)?
Answer: 210.5 g

Question: What about the APTT (9 h) of the same compound?
Answer: 22.3 s

Question: What about the Bas (9 h) of the same compound?
Answer: 0%

Question: And the Eos (9 h)?
Answer: 1.2%

Question: What about the Fbg (9 h) of the same compound?
Answer: 318.4 mg/dL

Question: And the Hb (9 h)?
Answer: 13.4 g/dL

Question: And the Ht (9 h)?
Answer: 40.5%

Question: And the Lym (9 h)?
Answer: 79%

Question: What about the MCH (9 h) of the same compound?
Answer: 20.8 pg

Question: What about the MCHC (9 h) of the same compound?
Answer: 33%

Question: What about the MCV (9 h) of the same compound?
Answer: 62.9 fL

Question: And the Mono (9 h)?
Answer: 2.6%

Question: And the Neu (9 h)?
Answer: 15.8%

Question: And the PT (9 h)?
Answer: 15.6 s

Question: What about the Plat (9 h) of the same compound?
Answer: 125.3 x10_4/uL

Question: And the RBC (9 h)?
Answer: 645.4 x10_4/ul

Question: And the Ret (9 h)?
Answer: 8%

Question: And the WBC (9 h)?
Answer: 77.8 x10_2/uL

Question: And the KIDNEY_L (9 h)?
Answer: 1 g

Question: And the KIDNEY_R (9 h)?
Answer: 1 g

Question: And the KIDNEY_TOTAL (9 h)?
Answer: 2 g

Question: And the LIVER (9 h)?
Answer: 8.8 g

Question: What about the A/G (9 h) of the same compound?
Answer: 1.2

Question: What about the ALP (9 h) of the same compound?
Answer: 1386.8 IU/L

Question: And the ALT (9 h)?
Answer: 33.8 IU/L

Question: What about the AST (9 h) of the same compound?
Answer: 62.6 IU/L

Question: And the BUN (9 h)?
Answer: 10 mg/dL

Question: What about the CRE (9 h) of the same compound?
Answer: 0.2 mg/dL

Question: What about the Ca (9 h) of the same compound?
Answer: 10.5 mg/dL

Question: And the Cl (9 h)?
Answer: 105.2 meq/L

Question: What about the DBIL (9 h) of the same compound?
Answer: 0 mg/dL

Question: And the GLC (9 h)?
Answer: 174.4 mg/dL

Question: And the IP (9 h)?
Answer: 9.4 mg/dL

Question: And the K (9 h)?
Answer: 4.2 meq/L

Question: And the LDH (9 h)?
Answer: 170.6 IU/L

Question: What about the Na (9 h) of the same compound?
Answer: 138.8 meq/L

Question: And the PL (9 h)?
Answer: 136 mg/dL

Question: What about the RALB (9 h) of the same compound?
Answer: 3 g/dL

Question: And the TBIL (9 h)?
Answer: 0.03 mg/dL

Question: What about the TC (9 h) of the same compound?
Answer: 75.2 mg/dL

Question: And the TG (9 h)?
Answer: 49.8 mg/dL

Question: And the TP (9 h)?
Answer: 5.5 g/dL

Question: What about the gamma-GTP (9 h) of the same compound?
Answer: 1.2 IU/L

Question: And the TERMINAL_BW (24 h)?
Answer: 226.7 g

Question: What about the APTT (24 h) of the same compound?
Answer: 20.4 s

Question: What about the Bas (24 h) of the same compound?
Answer: 0%

Question: And the Eos (24 h)?
Answer: 1%

Question: And the Fbg (24 h)?
Answer: 319.8 mg/dL

Question: What about the Hb (24 h) of the same compound?
Answer: 13.7 g/dL

Question: What about the Ht (24 h) of the same compound?
Answer: 41.1%

Question: And the Lym (24 h)?
Answer: 85%

Question: And the MCH (24 h)?
Answer: 21.1 pg

Question: What about the MCHC (24 h) of the same compound?
Answer: 33.4%

Question: And the MCV (24 h)?
Answer: 63.3 fL

Question: What about the Mono (24 h) of the same compound?
Answer: 2.4%

Question: What about the Neu (24 h) of the same compound?
Answer: 10.8%

Question: What about the PT (24 h) of the same compound?
Answer: 16 s

Question: What about the Plat (24 h) of the same compound?
Answer: 117.1 x10_4/uL

Question: What about the RBC (24 h) of the same compound?
Answer: 649.4 x10_4/ul

Question: What about the Ret (24 h) of the same compound?
Answer: 7%

Question: And the WBC (24 h)?
Answer: 88.2 x10_2/uL

Question: What about the KIDNEY_L (24 h) of the same compound?
Answer: 1 g

Question: And the KIDNEY_R (24 h)?
Answer: 1 g

Question: And the KIDNEY_TOTAL (24 h)?
Answer: 2 g

Question: What about the LIVER (24 h) of the same compound?
Answer: 9.8 g

Question: And the A/G (24 h)?
Answer: 1.2

Question: And the ALP (24 h)?
Answer: 1484 IU/L

Question: And the ALT (24 h)?
Answer: 37.4 IU/L

Question: And the AST (24 h)?
Answer: 69.6 IU/L

Question: What about the BUN (24 h) of the same compound?
Answer: 15.4 mg/dL

Question: What about the CRE (24 h) of the same compound?
Answer: 0.1 mg/dL

Question: And the Ca (24 h)?
Answer: 10.4 mg/dL

Question: What about the Cl (24 h) of the same compound?
Answer: 106.8 meq/L

Question: What about the DBIL (24 h) of the same compound?
Answer: 0.002 mg/dL

Question: What about the GLC (24 h) of the same compound?
Answer: 195.4 mg/dL

Question: And the IP (24 h)?
Answer: 8.1 mg/dL

Question: And the K (24 h)?
Answer: 4.3 meq/L

Question: And the LDH (24 h)?
Answer: 174.8 IU/L

Question: And the Na (24 h)?
Answer: 142 meq/L

Question: And the PL (24 h)?
Answer: 135.2 mg/dL

Question: And the RALB (24 h)?
Answer: 2.9 g/dL

Question: And the TBIL (24 h)?
Answer: 0.016 mg/dL

Question: What about the TC (24 h) of the same compound?
Answer: 75.2 mg/dL

Question: What about the TG (24 h) of the same compound?
Answer: 87.6 mg/dL

Question: What about the TP (24 h) of the same compound?
Answer: 5.4 g/dL

Question: What about the gamma-GTP (24 h) of the same compound?
Answer: 1.2 IU/L
